According to patent US11311520B2, “Substituted dihydroimidazopyridinediones as MKNK1 and MKNK2 inhibitors” (Bayer Pharma Aktiengesellschaft, priority 2017, dated 2022):

Target: human full-length MKNK1 (Homo sapiens (Human), UniProt Q9BUB5, T344D)
Assay: MKNK1 kinase high ATP assay (TR-FRET)
Assay type: biochemical
Settings: 2 mM ATP, 15 min preincubation with enzyme, GST-MKNK1 (T344D)
In short: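 GST-tagged full-length human MKNK1 (1-424, T344D, baculovirus-expressed) preincubated 15 min at 22 °C with compound, then reacted 30 min at 22 °C with 2 mM ATP and 0.06 μM biotinylated peptide (final) in HEPES pH 7.5. Phospho-substrate by TR-FRET (665/622 nm ratio), normalised to no-inhibitor and no-enzyme controls.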

Chain of human full-length MKNK1 (Q9BUB5 other isoform, or with tags, fused parts or gaps T344D): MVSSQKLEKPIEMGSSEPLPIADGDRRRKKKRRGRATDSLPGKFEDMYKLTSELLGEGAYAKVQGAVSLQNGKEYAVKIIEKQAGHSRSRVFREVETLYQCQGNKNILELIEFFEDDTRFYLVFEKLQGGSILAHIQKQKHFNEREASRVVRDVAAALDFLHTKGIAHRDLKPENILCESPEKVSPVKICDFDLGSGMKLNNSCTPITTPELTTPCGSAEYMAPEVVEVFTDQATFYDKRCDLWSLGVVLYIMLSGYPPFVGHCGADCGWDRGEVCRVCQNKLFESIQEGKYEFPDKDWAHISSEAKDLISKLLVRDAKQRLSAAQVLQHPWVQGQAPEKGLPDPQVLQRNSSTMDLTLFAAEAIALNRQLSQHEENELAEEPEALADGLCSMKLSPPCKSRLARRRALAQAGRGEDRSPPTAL

| SMILES | IC50 [nM] |
| --- | --- |
| Cc1cc(Nc2ncnc3sc(C(=O)N4CCC(N(C)C)CC4)cc23)c(=O)n2c1C(=O)NC2(C)C [Example 143, 6-[(6-{[4-(Dimethylamino)piperidin-1-yl]carbonyl}thieno[2,3-d]pyrimidin-4-yl)amino]-3,3,8-trimethyl-2,3-dihydroimidazo[1,5-a]pyridine-1,5-dione] | 40.3 |
| Cc1cc(Nc2ncnc3sc(C(=O)N4C[C@H]5C[C@@H]4CO5)cc23)c(=O)n2c1C(=O)NC2(C)C [Example 144, 3,3,8-Trimethyl-6-({6-[(1R,4R)-2-oxa-5-azabicyclo[2.2.1]hept-5-ylcarbonyl]thieno[2,3-d]pyrimidin-4-yl}amino)-2,3-dihydroimidazo[1,5-a]pyridine-1,5-dione] | 12.9 |
| Cc1cc(Nc2ncnc3sc(C(=O)O)c(C)c23)c(=O)n2c1C(=O)NC2(C)C [Example 145, 5-Methyl-4-[(3,3,8-trimethyl-1,5-dioxo-1,2,3,5-tetrahydroimidazo[1,5-a]pyridin-6-yl)amino]thieno[2,3-d]pyrimidine-6-carboxylic acid] | 115 |
| Cc1cc(Nc2ncnc(NC(=O)C3CC3)n2)c(=O)n2c1C(=O)NC21CCC1 [Example 146, N-{4-[(8′-Methyl-1′,5′-dioxo-1′,5′-dihydro-2′H-spiro[cyclobutane-1,3′-imidazo[1,5-a]pyridin]-6′-yl)amino]-1,3,5-triazin-2-yl}cyclopropanecarboxamide] | 8.2 |
| Cc1cc(Nc2ncnc(N)n2)c(=O)n2c1C(=O)NC21CCC1 [Example 147, 6′-[(4-Amino-1,3,5-triazin-2-yl)amino]-8′-methyl-2′H-spiro[cyclobutane-1,3′-imidazo[1,5-a]pyridine]-1′,5′-dione] | 12.7 |
| Cc1cc(Nc2ncnc3[nH]ccc23)c(=O)n2c1C(=O)NC21CCC1 [Example 148, 8′-Methyl-6′-(7H-pyrrolo[2,3-d]pyrimidin-4-ylamino)-2′H-spiro[cyclobutane-1,3′-imidazo[1,5-a]pyridine]-1′,5′-dione] | 0.4 |
| Cc1cc(Nc2ncnc3sccc23)c(=O)n2c1C(=O)NC21CCC1 [Example 149, 8′-Methyl-6′-(thieno[2,3-d]pyrimidin-4-ylamino)-2′H-spiro[cyclobutane-1,3′-imidazo[1,5-a]pyridine]-1′,5′-dione] | 2.3 |
| Cc1cc(Nc2ncnc3sc(C(=O)O)cc23)c(=O)n2c1C(=O)NC21CCC1 [Example 150, 4-[(8′-Methyl-1′,5′-dioxo-1′,5′-dihydro-2′H-spiro[cyclobutane-1,3′-imidazo[1,5-a]pyridin]-6′-yl)amino]thieno[2,3-d]pyrimidine-6-carboxylic acid] | 18.5 |
| Cc1cc(Nc2ncnc3sc(C(=O)NCCN(C)C)cc23)c(=O)n2c1C(=O)NC21CCC1 [Example 151, N-[2-(Dimethylamino)ethyl]-4-[(8′-methyl-1′,5′-dioxo-1′,5′-dihydro-2′H-spiro[cyclobutane-1,3′-imidazo[1,5-a]pyridin]-6′-yl)amino]thieno[2,3-d]pyrimidine-6-carboxamide] | 4 |
| Cc1cc(Nc2ncnc3sc(C(=O)N(C)CCN(C)C)cc23)c(=O)n2c1C(=O)NC21CCC1 [Example 152, N-[2-(Dimethylamino)ethyl]-N-methyl-4-[(8′-methyl-1′,5′-dioxo-1′,5′-dihydro-2′H-spiro[cyclobutane-1,3′-imidazo[1,5-a]pyridin]-6′-yl)amino]thieno[2,3-d]pyrimidine-6-carboxamide] | 7.4 |
| Cc1cc(Nc2ncnc3sc(C(=O)N4CC(NC(=O)OC(C)(C)C)C4)cc23)c(=O)n2c1C(=O)NC21CCC1 [Example 153, tert-Butyl [1-({4-[(8′-methyl-1′,5′-dioxo-1′,5′-dihydro-2′H-spiro[cyclobutane-1,3′-imidazo[1,5-a]pyridin]-6′-yl)amino]thieno[2,3-d]pyrimidin-6-yl}carbonyl)azetidin-3-yl]carbamate] | 5.3 |
| Cc1cc(Nc2ncnc3sc(C(=O)N4CC(N)C4)cc23)c(=O)n2c1C(=O)NC21CCC1 [Example 154, 6′-({6-[(3-Aminoazetidin-1-yl)carbonyl]thieno[2,3-d]pyrimidin-4-yl}amino)-8′-methyl-2′H-spiro[cyclobutane-1,3′-imidazo[1,5-a]pyridine]-1′,5′-dione] | 5 |
| Cc1cc(Nc2ncnc3sc(C(=O)N4CC(C#N)C4)cc23)c(=O)n2c1C(=O)NC21CCC1 [Example 155, 1-({4-[(8′-Methyl-1′,5′-dioxo-1′,5′-dihydro-2′H-spiro[cyclobutane-1,3′-imidazo[1,5-a]pyridin]-6′-yl)amino]thieno[2,3-d]pyrimidin-6-yl}carbonyl)azetidine-3-carbonitrile] | 5.3 |
| Cc1cc(Nc2ncnc3sc(C(=O)N4CC[C@@H](N(C)C)C4)cc23)c(=O)n2c1C(=O)NC21CCC1 [Example 156, 6′-[(6-{[(3R)-3-(Dimethylamino)pyrrolidin-1-yl]carbonyl}thieno[2,3-d]pyrimidin-4-yl)amino]-8′-methyl-2′H-spiro[cyclobutane-1,3′-imidazo[1,5-a]pyridine]-1′,5′-dione] | 4.3 |
| Cc1cc(Nc2ncnc3sc(C(=O)N4CCC(N(C)C)CC4)cc23)c(=O)n2c1C(=O)NC21CCC1 [Example 157, 6′-[(6-{[4-(Dimethylamino)piperidin-1-yl]carbonyl}thieno[2,3-d]pyrimidin-4-yl)amino]-8′-methyl-2′H-spiro[cyclobutane-1,3′-imidazo[1,5-a]pyridine]-1′,5′-dione] | 7.9 |
| Cc1cc(Nc2ncnc3sc(C(=O)N4C[C@H]5C[C@@H]4CO5)cc23)c(=O)n2c1C(=O)NC21CCC1 [Example 158, 8′-Methyl-6′-({6-[(1R,4R)-2-oxa-5-azabicyclo[2.2.1]hept-5-ylcarbonyl]thieno[2,3-d]pyrimidin-4-yl}amino)-2′H-spiro[cyclobutane-1,3′-imidazo[1,5-a]pyridine]-1′,5′-dione] | 5 |

| SMILES | IC50 [nM] |
| --- | --- |
| Cc1cc(Nc2ncnc3[nH]cnc23)c(=O)n2c1C(=O)NC21CCC1 [Example 159, 8′-Methyl-6′-(9H-purin-6-ylamino)-2′H-spiro[cyclobutane-1,3′-imidazo[1,5-a]pyridine]-1′,5′-dione] | 2.1 |
| Cc1cc(Nc2ncnc3[nH]ncc23)c(=O)n2c1C(=O)NC21CCC1 [Example 160, 8′-Methyl-6′-(1H-pyrazolo[3,4-d]pyrimidin-4-ylamino)-2′H-spiro[cyclobutane-1,3′-imidazo[1,5-a]pyridine]-1′,5′-dione] | 2.9 |
| Cc1cc(Nc2ncnc3c2CN(C(=O)OC(C)(C)C)C3)c(=O)n2c1C(=O)NC21CCC1 [Example 162, tert-Butyl 4-[(8′-methyl-1′,5′-dioxo-1′,5′-dihydro-2′H-spiro[cyclobutane-1,3′-imidazo[1,5-a]pyridin]-6′-yl)amino]-5,7-dihydro-6H-pyrrolo[3,4-d]pyrimidine-6-carboxylate] | 21.7 |
| Cc1cc(Nc2ncnc3c2CN(C(=O)OC(C)(C)C)C3)c(=O)n2c1C(=O)NC2(C)C [Example 163, tert-Butyl 4-[(3,3,8-trimethyl-1,5-dioxo-1,2,3,5-tetrahydroimidazo[1,5-a]pyridin-6-yl)amino]-5,7-dihydro-6H-pyrrolo[3,4-d]pyrimidine-6-carboxylate] | 16.8 |
| Cc1cc(Nc2ncnc3scnc23)c(=O)n2c1C(=O)NC2(C)C [Example 164, 3,3,8-Trimethyl-6-([1,3]thiazolo[5,4-d]pyrimidin-7-ylamino)-2,3-dihydroimidazo[1,5-a]pyridine-1,5-dione] | 383 |
| Cc1cc(Nc2ncnc3c2CNC3)c(=O)n2c1C(=O)NC2(C)C [Example 165, 6-(6,7-Dihydro-5H-pyrrolo[3,4-d]pyrimidin-4-ylamino)-3,3,8-trimethyl-2,3-dihydroimidazo[1,5-a]pyridine-1,5-dione] | 168 |
| Cc1cc(Nc2ncnc3ccc(Cl)cc23)c(=O)n2c1C(=O)NC2(C)C [Example 166, 6-[(6-Chloroquinazolin-4-yl)amino]-3,3,8-trimethyl-2,3-dihydroimidazo[1,5-a]pyridine-1,5-dione] | 45.9 |
| Cc1cc(Nc2ncnc3ccc(Cl)cc23)c(=O)n2c1C(=O)NC21CCC1 [Example 167, 6′-[(6-Chloroquinazolin-4-yl)amino]-8′-methyl-2′H-spiro[cyclobutane-1,3′-imidazo[1,5-a]pyridine]-1′,5′-dione] | 5.7 |
| Cc1cc(Nc2ncnc3c2CNC3)c(=O)n2c1C(=O)NC21CCC1 [Example 168, 6′-(6,7-Dihydro-5H-pyrrolo[3,4-d]pyrimidin-4-ylamino)-8′-methyl-2′H-spiro[cyclobutane-1,3′-imidazo[1,5-a]pyridine]-1′,5′-dione] | 49.5 |
| Cc1cc(Nc2ncnc3sc(C(=O)O)c(C)c23)c(=O)n2c1C(=O)NC21CCC1 [Example 169] | 15.7 |
| Cc1cc(Nc2ncnc3cccc(C)c23)c(=O)n2c1C(=O)NC21CCC1 [Example 170, 8′-methyl-6′-[(5-methylquinazolin-4-yl)amino]-2′H-spiro[cyclobutane-1,3′-imidazo[1,5-a]pyridine]-1′,5′-dione] | 5.3 |
| Cc1cc(Nc2ncnc3ccc(F)cc23)c(=O)n2c1C(=O)NC21CCC1 [Example 171, 6′-[(6-fluoroquinazolin-4-yl)amino]-8′-methyl-2′H-spiro[cyclobutane-1,3′-imidazo[1,5-a]pyridine]-1′,5′-dione] | 6 |
| Cc1cc(Nc2ncnc3ccccc23)c(=O)n2c1C(=O)NC21CCC1 [Example 172, 8′-methyl-6′-[(quinazolin-4-yl)amino]-2′H-spiro[cyclobutane-1,3′-imidazo[1,5-a]pyridine]-1′,5′-dione] | 12.1 |
| Cc1cc(Nc2ncnc3scnc23)c(=O)n2c1C(=O)NC21CSC1 [Example 173, 8-methyl-6-[([1,3]thiazolo[5,4-d]pyrimidin-7-yl)amino]-2H-spiro[imidazo[1,5-a]pyridine-3,3′-thietane]-1,5-dione] | 5.8 |
| Cc1cc(Nc2ncnc3cccc(C)c23)c(=O)n2c1C(=O)NC21CSC1 [Example 174, 8-methyl-6-[(5-methylquinazolin-4-yl)amino]-2H-spiro[imidazo[1,5-a]pyridine-3,3′-thietane]-1,5-dione] | 12.8 |
